Measurements from US20200157092A1, “[1,2,4]-TRIAZOLO [1,5-A]-PYRIMIDINYL DERIVATIVES SUBSTITUTED WITH PIPERIDINE, […] […] OGA INHIBITORS” (priority 2017, published 2020).
Where two headings read alike, the source gives them in different places.

What was measured:
[1] = target: T1, recombinant human Meningioma Expressed Antigen 5 (MGEA5), also referred to as O-GlcNAcase (OGA) (Homo sapiens, UniProt O60502); experiment: OGA biochemical assay: inhibition of FM-GlcNAc hydrolysis, fluorescence; protocol A (10 nM OGA, 1 h) or protocol B (2 nM OGA, 6 h); conditions: for IC50: read-out: Enzymatic hOGA, pIC50 (converted)
T1 construct: Full length OGA enzyme was purchased at OriGene (cat # TP322411); purchased OriGene TP322411
T1 sequence (O60502 1-916): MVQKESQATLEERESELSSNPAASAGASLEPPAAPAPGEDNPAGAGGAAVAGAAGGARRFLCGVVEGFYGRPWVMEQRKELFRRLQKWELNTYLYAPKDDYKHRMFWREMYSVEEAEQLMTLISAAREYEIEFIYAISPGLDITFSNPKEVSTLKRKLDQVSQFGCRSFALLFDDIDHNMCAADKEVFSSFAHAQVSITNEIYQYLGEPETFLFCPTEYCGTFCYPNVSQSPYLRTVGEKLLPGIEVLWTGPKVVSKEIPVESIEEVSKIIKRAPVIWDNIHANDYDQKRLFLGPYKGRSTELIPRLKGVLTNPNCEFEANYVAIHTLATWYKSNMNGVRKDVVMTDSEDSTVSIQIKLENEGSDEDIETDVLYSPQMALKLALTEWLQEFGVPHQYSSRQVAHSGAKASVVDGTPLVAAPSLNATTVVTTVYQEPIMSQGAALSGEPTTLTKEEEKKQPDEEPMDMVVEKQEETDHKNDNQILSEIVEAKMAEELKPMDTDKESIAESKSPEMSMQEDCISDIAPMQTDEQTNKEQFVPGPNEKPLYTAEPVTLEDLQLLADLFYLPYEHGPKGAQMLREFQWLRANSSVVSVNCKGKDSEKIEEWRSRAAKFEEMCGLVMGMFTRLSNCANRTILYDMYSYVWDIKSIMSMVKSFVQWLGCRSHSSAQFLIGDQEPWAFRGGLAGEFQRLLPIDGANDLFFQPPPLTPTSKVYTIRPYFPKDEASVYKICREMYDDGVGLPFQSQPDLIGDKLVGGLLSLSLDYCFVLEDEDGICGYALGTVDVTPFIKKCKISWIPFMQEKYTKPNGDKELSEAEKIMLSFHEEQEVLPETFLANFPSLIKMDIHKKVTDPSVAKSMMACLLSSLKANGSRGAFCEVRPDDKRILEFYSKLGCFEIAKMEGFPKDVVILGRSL
Experimental: The hydrolysis FM-GlcNAc (Marker Gene technologies, cat # M1485) results in the formation of ß-D-N-glucosamineacetate and fluorescein. The fluorescence of the latter can be measured at excitation wavelength 485 nm and emission wavelength 538 nm. An increase in enzyme activity results in an increase in fluorescence signal. Full length OGA enzyme was purchased at OriGene (cat # TP322411). The enzyme was stored in 25 mM Tris.HCl, pH 7.3, 100 mM glycine, 10% glycerol at −20° C. […] The assay was performed in 200 mM Citrate/phosphate buffer supplemented with 0.005% Tween-20. 35.6 g Na2HPO4 2 H2O (Sigma, # C0759) were dissolved in 1 L water to obtain a 200 mM solution. […] The buffer to stop the reaction consists of a 500 mM Carbonate buffer, pH 11.0. […] OGA was used at a 10 nM (protocol A) or 2 nM (protocol B) concentration and FM-GlcNAc at a 100 uM final concentration. Dilutions were prepared in assay buffer.
Plates were pre-incubated for 60 min at room temperature and then 2 μl FM-GlcNAc substrate mix added. […] Plates were briefly centrifuged for 1 min at 1000 rpm and incubate at room temperature for 1 h (10 nM OGA, protocol A) or 6 h (2 nM OGA, protocol B). To stop the reaction 5 μl STOP buffer were added and plates centrifuge again 1 min at 1000 rpm. Fluorescence was quantified in the Thermo Scientific Fluoroskan Ascent or the PerkinElmer EnVision with excitation wavelength 485 nm and emission wavelength 538 nm.
For analysis a best-fit curve is fitted by a minimum sum of squares method. From this an IC50 value and Hill coefficient was obtained. High control (no inhibitor) and low control (saturating concentrations of standard inhibitor) were used to define the minimum and maximum values.

[2] = target: T2, OGA (Homo sapiens, UniProt O60502); experiment: OGA cellular assay: immunocytochemical detection of O-GlcNAcylated proteins in HEK293 cells inducible for P301L mutant human Tau; format: cell-based; conditions: for Emax: HEK293, read-out: Cellular Emax (%); for Cellular hOGA; pEC50 / Cellular Emax (%): HEK293 cells inducible for P301L mutant human Tau, 6 hours incubation; for Cellular Emax (%): maximum = Thiamet G 200 uM
T2 construct: HEK293 cells inducible for P301L mutant human Tau (isoform 2N4R) were established at Janssen; endogenous in cells; host or cells: HEK293 cells inducible for P301L mutant human Tau (2N4R)
T2 sequence (O60502 1-916): T1 sequence (O60502 1-916)
Source text: HEK293 cells inducible for P301L mutant human Tau (isoform 2N4R) were established at Janssen. Thiamet-G was used for both plate validation (high control) and as reference compound (reference EC50 assay validation). […] Inhibition of OGA will result in an increase of O-GlcNAcylated protein levels resulting in an increased signal in the experiment. […] ICC pictures are imaged with a Perkin Elmer Opera Phenix plate microscope and quantified with the provided software Perkin Elmer Harmony 4.1.
Cells were propagated in DMEM high Glucose (Sigma, # D5796) following standard procedures. […] At the day of compound test medium from assay plates was removed and replenished with 90 μl of fresh Assay Medium. 10 μl of compounds at a 10 fold final concentration were added to the wells. Plates were centrifuged shortly before incubation in the cell incubator for 6 hours. DMSO concentration was set to 0.2%. Medium is discarded by applying vacuum. For staining of cells medium was removed and cells washed once with 100 μl D-PBS (Sigma, # D8537). From next step onwards unless other stated assay volume was always 50 μl and incubation was performed without agitation and at room temperature. […] Before analysis samples were washed 2 times manually for 5 minutes in ICC base buffer.
Imaging is performed using Perkin Elmer Phenix Opera using a water 20× objective and recording 9 fields per well. Intensity readout at 488 nm is used as a measure of O-GlcNAcylation level of total proteins in wells. To assess potential toxicity of compounds nuclei were counted using the Hoechst staining. IC50-values are calculated using parametric non-linear regression model fitting. As a maximum inhibition Thiamet G at a 200 uM concentration is present on each plate. In addition, a concentration response of Thiamet G is calculated on each plate.

[3] = Enzymatic protocol A (10 nM OGA, 1 h)
[4] = Enzymatic protocol B (2 nM OGA, 6 h)

Structure (SMILES) | Emax [1, 3] [%] | IC50 [1, 3] [µM] | melting point [°C] | Emax [1, 4] [%] | IC50 [1, 4] [µM] | EC50 [2] [µM] | Emax [2] [%] | Enzymatic Emax (%) [1, 4] [%] | Enzymatic hOGA; pIC50 [1, 4] | Cellular hOGA; pEC50 [2] | Cellular Emax (%) [2] [%]
CC(=O)Nc1ncc(S(=O)(=O)N2CCCC(c3cc(C(F)F)n4ccnc4n3)C2)s1 (racemic) [Product 23] | 102 | 0.295 | 280.13 | – | – | – | – | – | – | – | –
CC(=O)Nc1ncc(S(=O)(=O)N2CC[C@H](C)[C@@H](c3cc(C(F)F)nc4ncnn34)C2)s1 [Product 7] | 82.2 | 2.75 | 264.57 | – | – | – | – | – | – | – | –
CC(=O)Nc1ncc(CN2CCC(c3cc(C(F)(F)F)nc4ncnn34)C2)s1 (stereo not drawn) [Product 20] | – | – | 214.29 | 93.7 | 0.603 | – | – | – | – | – | –
CC(=O)Nc1ncc(CN2CCC(Cc3cccc4nccn34)C2)s1 (stereo not drawn) [Product 50] | – | – | – | 99.6 | 0.00933 | 0.0339 | 103 | – | – | – | –
Cc1cc(C2CCCN(C(C)c3ccc4c(c3)OCO4)C2)n2ccnc2n1 (stereo not drawn) [Product 52] | – | – | – | 101 | 0.0186 | 2.63 | 131 | – | – | – | –
CC(c1ccc2c(c1)OCO2)N1CCOC(c2ccnc3ncnn23)C1 (stereo not drawn) [Product 55] | – | – | – | 51.8 | 9.55 | > 10 | 1.01 | – | – | – | –
c1cc(CC2CCN(Cc3ccc4nccnc4c3)C2)n2ccnc2c1 (stereo not drawn) [Product 58] | – | – | – | 97.3 | 0.245 | > 10 | 4.1 | – | – | – | –
CC(=O)Nc1ncc(CN2CCC3(CC3)C(c3cc(C(F)F)nc4ncnn34)C2)s1 (stereo not drawn) [Product 64] | 101 | 0.0692 | – | – | – | 4.79 | 84.5 | – | – | – | –
CC(=O)Nc1ncc(CN2CCCC(Cc3cccc4nccn34)C2)s1 (stereo not drawn) [Product 66] | – | – | – | 101 | 0.0295 | 0.0182 | 97.3 | – | – | – | –
CC(=O)Nc1ncc(CN2CCC(Cc3cnc4ccn(C)c4c3)C2)s1 (stereo not drawn) [Product 69] | – | – | – | 99.6 | 0.00302 | 0.0234 | 108 | – | – | – | –
CC(=O)Nc1ncc(CN2CCCC(c3ccc4ccn(C)c4n3)C2)s1 (stereo not drawn) [Product 73] | – | – | – | 101 | 0.0813 | 0.195 | 87.2 | – | – | – | –
CC(=O)Nc1ncc(CN2CCCC(c3cc(C)nc4ccn(C)c34)C2)s1 (stereo not drawn) [Product 86] | – | – | – | – | – | – | – | 102.93 | 8.38 | 7.18 | 100.91
CC(=O)Nc1ncc(CN2CCCC(c3nc(C)cc4ccn(C)c34)C2)s1 (stereo not drawn) [Product 88] | – | – | – | 101 | 0.0832 | 0.407 | 57.4 | – | – | – | –
CC(=O)Nc1ncc(CN2CCCC(c3nc(C)cc4cc[nH]c34)C2)s1 (stereo not drawn) [Product 91] | – | – | – | 103 | 0.0955 | 0.0447 | 84.3 | – | – | – | –
CC(=O)Nc1ncc(CN2CCCC(c3nc(C)cc4cc[nH]c34)C2)s1 (stereo not drawn) [Product 93] | – | – | – | – | – | – | – | 101.08 | 7.35 | 7.61 | 87.83
CC(=O)Nc1ncc(CN2CCCC(c3cc(C)nc4cc[nH]c34)C2)s1 (stereo not drawn) [Product 96] | – | – | – | – | – | – | – | 99.16 | 6.15 | 6.40 | 70.38
CC(=O)Nc1ncc(CN2CCCC(Cc3cnc4cc[nH]c4c3)C2)s1 (stereo not drawn) [Product 97] | – | – | – | 102 | 0.00174 | 0.00776 | 109 | – | – | – | –
CC(=O)Nc1ncc(CN2CCCC(c3ccc4c(ccn4C)n3)C2)s1 (stereo not drawn) [Product 100] | – | – | – | 98.5 | 0.309 | 0.195 | 85.7 | – | – | – | –
CC(=O)Nc1ncc(CN2CCCC(c3cc4ccn(C)c4nc3C)C2)s1 (stereo not drawn) [Product 101] | – | – | – | 102 | 0.00661 | 0.00933 | 114 | – | – | – | –
CC(=O)Nc1ncc(CN2CCCC(c3cnc4cc[nH]c4c3)C2)s1 (stereo not drawn) [Product 106] | – | – | – | 101 | 0.275 | 0.282 | 71 | – | – | – | –
CC(=O)Nc1ncc(CN2CC[C@H](Cc3cccc4nccn34)C2)s1 [Product 107] | – | – | – | 101 | 0.00813 | 0.055 | 82 | – | – | – | –
